The test system of test [1] is Paracentrotus lividus. Nature of the test: Antimitotic activity in sea urchin fertilized egg assessed as cleavage alteration treated at 8 to 20 mins post-fertilization measured at 2.5 to 5.5 hrs post-fertilization. Format: functional.
In test [2] the test system is Paracentrotus lividus. Nature of the test: Antimitotic activity in sea urchin fertilized egg assessed as cleavage arrest treated at 8 to 20 mins post-fertilization measured at 2.5 to 5.5 hrs post-fertilization. The test is classed as functional.
The test system of test [3] is Paracentrotus lividus. The experiment in a line: Microtubule destabilizing activity in sea urchin free-swimming blastula assessed as embryo spinning treated at 9 to 10 hrs post-fertilization measured after 0.15 to 15 hrs. The test is classed as functional.
In test [4] the test system is Paracentrotus lividus. The experiment in a line: Microtubule destabilizing activity in sea urchin free-swimming blastula assessed as embryo spinning up to 4 uM treated at 9 to 10 hrs post-fertilization measured after 0.15 to 15 hrs. The test is classed as functional, organism-based.

Activity calls are given as the source filed them. The rule behind the calls is not given here.

The results in this text go back to ChEMBL document CHEMBL3112491, “3-(5-)-Amino-o-diarylisoxazoles: regioselective synthesis and antitubulin activity” (2014).

With `COc1ccc(-c2noc(N)c2-c2cc(OC)c(OC)c(OC)c2)cc1`, the EC in the test with Paracentrotus lividus [1] turned out to be 0.002 µM; in the test on Paracentrotus lividus [2] it was 0.01 µM; in the test on Paracentrotus lividus [3], 0.1 µM.
`COc1ccc(-c2noc(N)c2-c2cc3c(c(OC)c2OC)OCO3)cc1`: the EC in the test on Paracentrotus lividus [1], in the test with Paracentrotus lividus [2] and in the test on Paracentrotus lividus [3] was >4 µM throughout.
Regarding `COc1ccc(-c2c(NC(C)=O)noc2-c2cccc(OC)c2)cc1`, the EC in the test with Paracentrotus lividus [1], in the test on Paracentrotus lividus [2] and in the test with Paracentrotus lividus [3] was >4 µM throughout.
With `COc1ccc(Cc2noc(-c3cc(OC)c4c(c3)OCO4)n2)cc1`, the result in the test with Paracentrotus lividus [4] was inactive.
Consider `COc1ccc(-c2c(N)noc2-c2cc(OC)c3c(c2)OCCO3)cc1`, for which the EC was 0.005 µM with Paracentrotus lividus [1], 0.02 µM in the test with Paracentrotus lividus [2] and 0.5 µM with Paracentrotus lividus [3].
For the compound `COc1ccc(-c2c(-c3cc(OC)c(OC)c(OC)c3)noc2N(C(C)=O)C(C)=O)cc1`, the EC with Paracentrotus lividus [1] is 0.05 µM; in the test with Paracentrotus lividus [2], 0.2 µM; in the test with Paracentrotus lividus [3] it was 1 µM.
The matching figures for `COc1ccc(-c2c(NC(C)=O)noc2-c2cc3c(c(OC)c2OC)OCO3)cc1`: >4 µM, >4 µM and >4 µM.
Consider `COc1ccc(-c2onc(NC(C)=O)c2-c2ccc(Cl)cc2)cc1`, for which the EC in the test on Paracentrotus lividus [1], in the test with Paracentrotus lividus [2] and in the test with Paracentrotus lividus [3] was >4 µM throughout.
As for `COc1ccc(-c2onc(N)c2-c2cc(OC)c(OC)c(OC)c2)cc1`, the values for the EC with Paracentrotus lividus [1], with Paracentrotus lividus [2] and in the test on Paracentrotus lividus [3] were 0.004 µM, 0.02 µM and 0.2 µM, respectively.
Take `COc1ccc(-c2onc(N)c2-c2cc3c(c(OC)c2OC)OCO3)cc1`: the EC was 4 µM in the test on Paracentrotus lividus [1], >4 µM in the test with Paracentrotus lividus [2] and >4 µM in the test on Paracentrotus lividus [3].
For the compound `COc1ccc(/C=C\c2cc(OC)c3c(c2)OCO3)cc1O` [Combretastatin A-2], the EC worked out at 0.002 µM in the test on Paracentrotus lividus [1], 0.01 µM in the test on Paracentrotus lividus [2] and 0.05 µM in the test on Paracentrotus lividus [3].
Regarding `COc1ccc(-c2nc(CCc3cc(OC)c(OC)c(OC)c3)no2)cc1`, the outcome in the test with Paracentrotus lividus [4] was inactive.
For `COc1ccc(-c2c(NC(C)=O)noc2-c2cc(OC)c3c(c2)OCCO3)cc1`, the EC in the test on Paracentrotus lividus [1], in the test with Paracentrotus lividus [2] and with Paracentrotus lividus [3] was >4 µM in each case.
As to `COc1ccc(-c2c(-c3cc(OC)c4c(c3OC)OCO4)noc2N)cc1`, the figures for the EC in the test with Paracentrotus lividus [1], in the test with Paracentrotus lividus [2] and in the test with Paracentrotus lividus [3] were 2 µM, >5 µM and >5 µM, respectively.
For the compound `COc1ccc(-c2onc(NC(C)=O)c2-c2ccc([N+](=O)[O-])cc2)cc1`, the EC in the test with Paracentrotus lividus [1], in the test with Paracentrotus lividus [2] and in the test with Paracentrotus lividus [3] was >4 µM throughout.
Consider `COc1ccc(-c2c(-c3cc(OC)c4c(c3OC)OCO4)noc2N(C(C)=O)C(C)=O)cc1`, for which the figures for the EC with Paracentrotus lividus [1], in the test with Paracentrotus lividus [2] and in the test on Paracentrotus lividus [3] were 0.5 µM, 2 µM and 5 µM, respectively.
`COc1ccc(CCc2noc(-c3cc(OC)c4c(c3)OCCO4)n2)cc1`: the outcome with Paracentrotus lividus [4] was inactive.
On to `COc1ccc(Cc2noc(-c3cccc(OC)c3)n2)cc1`, for which the outcome with Paracentrotus lividus [4] was inactive.
Regarding `COc1ccc(-c2c(NC(C)=O)noc2-c2cc(OC)c3c(c2OC)OCO3)cc1`, the EC with Paracentrotus lividus [1], in the test on Paracentrotus lividus [2] and with Paracentrotus lividus [3] was >4 µM each time.
Regarding `COc1ccc(Cc2noc(-c3cc4c(c(OC)c3OC)OCO4)n2)cc1`, in the test on Paracentrotus lividus [4], the outcome was inactive.
With `COc1ccc(-c2c(NC(C)=O)noc2-c2cc(OC)c3c(c2)OCO3)cc1`, the EC in the test with Paracentrotus lividus [1], in the test with Paracentrotus lividus [2] and in the test with Paracentrotus lividus [3] was >4 µM in each case.
Consider `COc1ccc(-c2onc(N)c2-c2cc(OC)c3c(c2OC)OCO3)cc1`, for which the EC in the test with Paracentrotus lividus [1], with Paracentrotus lividus [2] and in the test with Paracentrotus lividus [3] was >4 µM throughout.
With `COc1ccc(-c2c(-c3ccccc3)noc2N)cc1OC`, the figures for the EC with Paracentrotus lividus [1], with Paracentrotus lividus [2] and with Paracentrotus lividus [3] were 0.5 µM, 10 µM and 10 µM, respectively.
Regarding `COc1ccc(Cc2noc(-c3cc(OC)c4c(c3OC)OCO4)n2)cc1`, the outcome in the test on Paracentrotus lividus [4] was inactive.
As for `COc1ccc(-c2c(NC(C)=O)noc2-c2cc(OC)c(OC)c(OC)c2)cc1`, the EC in the test on Paracentrotus lividus [1], in the test with Paracentrotus lividus [2] and in the test on Paracentrotus lividus [3] was >4 µM each time.
On to `COc1ccc(Cc2noc(-c3ccc([N+](=O)[O-])cc3)n2)cc1`, for which the result in the test with Paracentrotus lividus [4] was inactive.
In the case of `COc1ccc(-c2onc(NC(C)=O)c2-c2ccc(OC)cc2)cc1`, the EC with Paracentrotus lividus [1], with Paracentrotus lividus [2] and with Paracentrotus lividus [3] was >4 µM in each case.
As to `COc1ccc(-c2noc(N)c2-c2ccc(Cl)cc2)cc1`, the EC with Paracentrotus lividus [1], with Paracentrotus lividus [2] and with Paracentrotus lividus [3] was >4 µM in each case.
For the compound `COc1ccc(-c2noc(N)c2-c2cc(OC)c3c(c2OC)OCO3)cc1`, the EC in the test on Paracentrotus lividus [1] was 4 µM; in the test with Paracentrotus lividus [2], >4 µM; with Paracentrotus lividus [3], >4 µM.
As for `COc1ccc(-c2onc(NC(C)=O)c2-c2cc(OC)c(OC)c(OC)c2)cc1`, the EC with Paracentrotus lividus [1], in the test on Paracentrotus lividus [2] and in the test with Paracentrotus lividus [3] was >4 µM each time.
For `COc1ccc(C(=O)Nc2noc(-c3ccc(OC)cc3)c2-c2cc(OC)c(OC)c(OC)c2)cc1`, the EC with Paracentrotus lividus [1], in the test on Paracentrotus lividus [2] and in the test with Paracentrotus lividus [3] was >4 µM throughout.
Turning to `COc1ccc(-c2c(-c3cc(OC)c4c(c3)OCO4)noc2N(C(C)=O)C(C)=O)cc1`, the figures for the EC with Paracentrotus lividus [1], with Paracentrotus lividus [2] and in the test on Paracentrotus lividus [3] were 0.02 µM, 0.1 µM and 0.5 µM, respectively.
Take `COc1ccc(Cc2noc(-c3cc(OC)c(OC)c(OC)c3)n2)cc1`: in the test with Paracentrotus lividus [4], the outcome was inactive.
